This is an account of results in PMC10261104, “Regioselective stilbene O-methylations in Saccharinae grasses” (Nature Communications, 2023).

Assay [1] deals with T1, SbSOMT (stilbene O-methyltransferase) (Sorghum bicolor, UniProt A0A1B6PFV1).
T1 construct: gene SORBI_3007G059100; residues 2–377
Nature of the assay: ITC; X-ray crystal structure ([…] Å, ternary complex); enzyme kinetics (Km […]). In kind it is binding. (In general: Isothermal titration calorimetry measures the heat released or taken up as one component is titrated into another.)

Assay [2] has as its target T2, SbCOMT (caffeic acid O-methyltransferase) (Sorghum bicolor, UniProt C5YH12).
T2 construct: gene SORBI_3007G047300; residues 2–362
T2 sequence (C5YH12 2-362): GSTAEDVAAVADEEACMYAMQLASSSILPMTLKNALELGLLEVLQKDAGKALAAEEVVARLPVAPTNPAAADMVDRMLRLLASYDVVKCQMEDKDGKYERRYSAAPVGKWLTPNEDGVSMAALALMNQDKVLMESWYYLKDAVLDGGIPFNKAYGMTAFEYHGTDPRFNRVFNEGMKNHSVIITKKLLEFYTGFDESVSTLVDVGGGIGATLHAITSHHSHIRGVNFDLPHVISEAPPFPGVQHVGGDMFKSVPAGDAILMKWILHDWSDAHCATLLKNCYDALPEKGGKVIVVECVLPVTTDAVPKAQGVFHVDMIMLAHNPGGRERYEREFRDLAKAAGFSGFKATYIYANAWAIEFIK
As to the kind of experiment: ITC; enzyme kinetics (Km […]). In kind it is binding.

The target of assay [3] is T2, SbCOMT (caffeic acid O-methyltransferase). Nature of the assay: ITC. In kind it is binding.
Assay [4] has as its target T1, SbSOMT (stilbene O-methyltransferase). As to the kind of experiment: ITC; X-ray crystal structures (binary, and ternary with β-NAD at […] Å); methylation assay. In kind it is binding.
In assay [5] the target is Sorghum bicolor stilbene O-methyltransferase (SbSOMT) (Sorghum bicolor). As to the kind of experiment: crystal structure; SbSOMT co-crystallised with resveratrol, pinostilbene or pterostilbene, with or without β-NAD; sitting drop vapor diffusion, 18 °C.
The target of assay [6] is T2, SbCOMT (caffeic acid O-methyltransferase). Nature of the assay: ITC; […]ʹ-O-methylation enzyme assay. In kind it is binding.
In assay [7] the target is T1, SbSOMT (stilbene O-methyltransferase). As to the kind of experiment: ITC. In kind it is binding.
Assay [8] shares this target. Nature of the assay: ITC; X-ray crystal structure ([…] Å, ternary complex). In kind it is binding.

pKd: −log10 of the molar value.

T1 sequence (A0A1B6PFV1 2-377): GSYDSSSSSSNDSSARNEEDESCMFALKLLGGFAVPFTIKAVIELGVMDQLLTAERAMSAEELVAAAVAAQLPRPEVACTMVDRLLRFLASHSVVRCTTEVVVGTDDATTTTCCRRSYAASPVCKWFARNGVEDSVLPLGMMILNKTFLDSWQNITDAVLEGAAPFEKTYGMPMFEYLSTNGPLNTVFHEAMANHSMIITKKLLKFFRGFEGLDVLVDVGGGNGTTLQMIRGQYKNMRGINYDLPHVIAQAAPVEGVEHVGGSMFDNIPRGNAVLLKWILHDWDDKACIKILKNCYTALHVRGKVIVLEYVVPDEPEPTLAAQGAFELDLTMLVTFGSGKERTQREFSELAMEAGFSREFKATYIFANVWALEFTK

With `COc1cc(O)cc(/C=C/c2ccc(O)cc2)c1` [pinostilbene], the figures for the pKd in assay [1] and in assay [2] were 5.54 and 5.75, respectively.

In the case of `Oc1ccc(/C=C/c2cc(O)cc(O)c2)cc1` [resveratrol], the pKd in assay [3] is 5.81; in assay [4], 5.33.

The molecule “Sorghum bicolor stilbene O-methyltransferase (SbSOMT) (enzyme)” gave a stoichiometry N in assay [5] of 2.

In assay [6], `Oc1cc(O)cc(/C=C/c2ccc(O)c(O)c2)c1` [piceatannol] showed a pKd of 5.90.

On to `C[S+](CC[C@H](N)C(=O)[O-])C[C@H]1O[C@@H](n2cnc3c(N)ncnc32)[C@H](O)[C@@H]1O` (stereo partly shown) [SAM], for which the pKd was 4.89 in assay [3] (read-out: SbCOMT) and 4.05 in assay [7].

Regarding `COc1cc(/C=C/c2ccc(O)cc2)cc(OC)c1` [pterostilbene], the pKd in assay [3] (read-out: SbCOMT) is 5.40; in assay [8], 4.95.

As a reminder, the stoichiometry N is a count of units in the complex or per binding partner.
